Assay results reported in patent US20220008355A1, “USE OF CAN[…] THE TREATMENT OF EPILEPSY” (GW Research Limited, priority 2018, published 2022).

Key:
[1] = Solubility of the drug substance in water; type: physicochemical
Source text: The drug substance, CBD is insoluble in water. Sesame oil was selected as an excipient to solubilize the drug substance.

[2] = test system: seizures after administration of pro-convulsant drugs or an electric current; details: mice; cited from earlier work
Dravet syndrome = details: Phase 3, Dravet syndrome; cited from earlier work
seizures [3] = details: of four adult patients; 200 mg/day; cited from earlier work
[4] = test system: epilepsy associated with GRIN2A mutation; test: Expanded access compassionate use case study of a child with GRIN2A mutation refractory epilepsy; type: in vivo, human
Method: Example 1 describes a case study of a child with a GRIN2A mutation that was provided highly purified cannabidiol as part of an expanded access treatment program of children with refractory epilepsy.
A child was enrolled in an expanded access compassionate use program for CBD. This subject was treated with a highly purified extract of cannabidiol (CBD) obtained from a cannabis plant. Frequency of seizures was recorded at each visit, as were reported quality of life changes, including mood, behaviour, and cognitive function.
The patient first presented with seizures. They experienced status epilepticus with myoclonic jerks and atypical absence seizures which lasted between 30 seconds to 15 minutes.
The patient had tried and failed 10 different anti-epileptic drugs, the ketogenic diet, vitamin B6 and vagus nerve stimulation however their seizures remained refractory.
Treatment with a highly purified CBD extract (greater than 98% CBD w/w) in sesame oil, of known and constant composition, at a dose of 5 mg/kg/day in addition to their baseline anti-epileptic drug (AED) regimen was commenced in September 2014 and has been ongoing for four years.
Laboratory testing for hematologic, liver, kidney function and concomitant AED levels was performed at baseline, and after every 4 weeks of CBD therapy.

[5] = test system: secondary generalized epilepsy; details: of eight adult patients; cited from earlier work
seizures [6] = details: twelve institutionalized adult patients; 200 mg/day; cited from earlier work
seizures [7] = details: rabbit, in vivo; cited from earlier work

| SMILES | Solubility in water [1] | Prevention of seizures [2] | Study outcome (Dravet syndrome) | Number of patients who became seizure free (seizures [3]) | Concomitant anti-epileptic drugs after treatment ([4]; after CBD treatment) | Cognitive function ([4]; after CBD treatment, patient now attends regular school and sports activities) | Seizure status since the start of treatment ([4]; one patient, CBD 5 up to 25 mg/kg/day added to baseline AEDs, four years of treatment) | EEG: posterior dominate rhythm, alpha activity ([4]; repeat EEG after treatment with CBD (FIG. 2)) | EEG: epileptiform discharges ([4]; repeat EEG after treatment with CBD (FIG. 2), left frontal head region) | EEG: electrical status epilepticus during sleep ([4]; repeat EEG after treatment with CBD (FIG. 2), present at baseline) | Number of patients with marked reduction of seizures [5] | Control of seizures (seizures [6]) | Convulsant liability (seizures [7]) |
| --- | --- | --- | --- | --- | --- | --- | --- | --- | --- | --- | --- | --- | --- |
| C=C(C)[C@@H]1CCC(C)=C[C@H]1c1c(O)cc(CCCCC)cc1O [CBD, Cannabidiol] | insoluble | able to prevent seizures | positive results | two | All AEDs have been stopped with the exception of clobazam and the VNS | significantly improved | seizure free | 9 Hz | rare | no electrical status epilepticus during sleep | 4 | ineffective | – |
| CCCCCc1cc(O)c2c(c1)OC(C)(C)[C@@H]1CCC(C)=C[C@@H]21 [THC, Tetrahydrocannabinol] | – | – | – | – | – | – | – | – | – | – | – | – | pro-convulsant |
